# Reference: US20110028566A1, “COMPOSITIONS AND PRODUCTS CONTAINING CYCLOALIPHATIC DIOL ANTIMICROBIAL AGENTS AND METHODS OF USING THE COMPOSITIONS AND PRODUCTS” (EASTMAN CHEMICAL COMPANY, priority 2009, published 2011)
# How the values were obtained:
# Assay in all cases: Microbial challenge testing in BPW
# Type in all cases: cell-based
# [1] = system: Aspergillus niger; settings: BPW, w/v % in label, average of replicates; for Grade code, A. niger, 13 Day: 13 days incubation; for Grade code, A. niger, 30 Day: 30 days incubation
# Experimental: (§1) The microorganisms used in challenge tests are given in Table 3, designated as either ATCC (American Type Culture Collection) or wild type. These wild type organisms were problematic organisms previously isolated from chemical products. In the description for each organism, the bacteria are indicated as either GN (Gram negative) or GP (Gram positive).
# (§2) All of the microorganisms were grown in Tryptose Soy Broth (TSB), DIFCO™ available from Becton, Dickinson and Company, containing 1% dextrose. Aspergillus niger and Candida albicans were incubated at 22° C.±2° C. for at least 96 hours. All bacteria were incubated at 35° C.±2° C. in a humidified incubator for at least 96 hours.
# Aspergillus niger and Candida albicans were also grown on Sabouraud dextrose agar (SDA) at 22° C.±2° C. for 7 to 14 days or until full sporulation was achieved.
# (§3) The following procedure was followed to determine the amount of each challenge material (inoculum broth) required to produce a 10^8 cfu/mL challenge, which is equivalent to a final test-sample microbial concentration of 10^5 to 10^6 cfu (colony-forming units)/mL.
# (§4) Using a sterile serological pipette, 1 mL of the growth from each TSB culture was transferred into tubes containing 9 mL phosphate buffer (pH 7.2) and mixed thoroughly. This process was repeated to make serial 1:10 dilutions. Then 0.1 mL of each sample and dilution was inoculated onto agar plates to produce the equivalent of a further 1:10 dilution. C. albicans and A. niger were inoculated onto SDA and bacteria were inoculated onto Plate Count Agar (PCA), DIFCO™ available from Becton, Dickinson and Company. The 0.1 mL aliquots were evenly distributed on the plates using the spread-plate technique. The spread-plate technique is performed by spreading the aliquot over the entire plate surface using a sterile spreading rod while rotating the plate with a rotary auto-plater. After the inoculum was absorbed completely, each plate was inverted and incubated (fungi at 22° C.±2° C. and bacteria at 35° C.±2° C.).
# (§5) After incubation for at least 48 hours, colonies that had developed on the agar plates were counted and recorded with the corresponding dilution. If counting had to be delayed temporarily, plates were refrigerated, preferably no more than 24 hours, until they could be counted. The number of cfu/mL was determined by multiplying the count by the dilution factor for that particular plate.
# (§6) Turbidity in Nepholemetric Turbidity Units (NTU) was measured for each serial dilution using the HF-Micro 100 Model Turbidimeter. For each microorganism, the plate counts were compared to the turbidity readings.
# Aspergillus niger cultures were harvested and spores dislodged from the SDA on which they were grown by rubbing the growth gently with a sterile inoculating loop. The spores were then mixed into the broth culture that had been incubated with a sterile magnetic stir bar to reduce pellicle formation. The spore-culture mixture was filtered repeatedly through sterile, non-absorbent cotton and harvested repeatedly, adjusting vegetative cells and spores to a level of 1.0×10^8. A hemocytometer was used to verify the final challenge concentration.
# (§7) Control substrates (“broth alone”) were prepared for each microorganism separately in triplicate by adding 13.5 mL of BPW (pH 7.0) containing 1% (w/v) dextrose to each 20-mL glass tube; then adding 1.5 mL challenge material to produce a final concentration at time zero of 10^5 to 10^6 cfu/mL and a total volume of 15 mL.
# Test sample substrates were prepared containing each test material (1,4-CHDM, etc) or combination of test materials at the concentrations shown in Tables 5 and 6.
# [2] = system: Staphylococcus aureus; settings: BPW, w/v % in label, average of replicates; for Grade code, S. aureus, 3 Day: 3 days incubation; for Grade code, S. aureus, 14 Day: 14 days incubation; for Grade code, S. aureus, 30 Day: 30 days incubation
# Experimental: as §1, §2, §3, §4, §5, §6, §7
# (§8) Test sample substrates were prepared containing each test material (1,4-CHDM, etc) or combination of test materials at the concentrations shown in Tables 5 and 6. Sample substrates were prepared in triplicate, except those substrates containing PE or CG which were prepared in duplicate. Substrates were prepared by adding BPW containing 1% (w/v) dextrose to each 20-mL glass tube, then adding the test material in the amount appropriate to achieve the desired weight/volume percent (g/100 mL) and to obtain a total volume of BPW with dextrose and test material of 13.5 mL. Then 1.5 mL challenge material was added to produce a final concentration at time zero of 10^5 to 10^6 cfu/mL of the respective organism and a total test sample substrate volume of 15 mL.
# (§9) After mixing, all challenged substrates were incubated at 35° C.±2° C. for 14 days and then at ambient room temperature.
# [3] = system: Proteus vulgaris; settings: BPW, w/v % in label, average of replicates; for Grade code, P. vulgaris, 3 Days: 3 days incubation
# Experimental: as §1, §2, §3, §4, §5, §6, §7, §8, §9
# [4] = system: Bacillus subtilis; settings: BPW, w/v % in label, average of replicates; for Grade code, B. subtilis, 3 Day: 3 days incubation; for Grade code, B. subtilis, 14 Day: 14 days incubation; for Grade code, B. subtilis, 30 Days: 30 days incubation
# Experimental: as §1, §2, §3, §4, §5, §6, §7, §8, §9
# [5] = system: Pseudomonas aeruginosa; settings: BPW, w/v % in label, average of replicates; for Grade code, P. aeruginosa, 3 Days: 3 days incubation; for Grade code, P. aeruginosa, 13 Days: 13 days incubation; for Grade code, P. aeruginosa, 30 Days: 30 days incubation
# Experimental: as §1, §2, §3, §4, §5, §6, §7, §8, §9
# [6] = system: Burkholderia cepacia; settings: BPW, w/v % in label, average of replicates; for Grade code, B. cepacia, 14 Days: 14 days incubation; for Grade code, B. cepacia, 30 Days: 30 days incubation
# Experimental: as §1, §2, §3, §4, §5, §6, §7, §8, §9
# [7] = system: Aeromonas sp.; settings: BPW, w/v % in label, average of replicates
# Experimental: as §1, §2, §3, §4, §5, §6, §7, §8, §9
# [8] = system: Escherichia coli; settings: BPW, w/v % in label, average of replicates; for Grade code, E. coli, 3 Day: 3 days incubation; for Grade code, E. coli, 14 Day: 14 days incubation; for Grade code, E. coli, 30 Day: 30 days incubation
# Experimental: as §1, §2, §3, §4, §5, §6, §7, §8, §9
smiles,measurement,setting,value
"CCCCCCC(O)CO (centres unmarked) [CG, 1,2-octanediol]","Grade code, A. niger, 3 Day",[1]; 3 days incubation,4
same,"Grade code, A. niger, 13 Day",[1]; listed as 0.25% CG,4
same,"Grade code, A. niger, 13 Day",[1]; listed as 0.5% CG,2 (Countable (11 to 100 colonies))
same,"Grade code, A. niger, 30 Day",[1]; listed as 0.25% CG,4
same,"Grade code, A. niger, 30 Day",[1]; listed as 0.5% CG,1 (Countable (1 to 10 colonies))
same,"Grade code, S. aureus, 3 Day",[2]; listed as 0.25% CG,"4 (1001 to 10,000 colonies (thus 10,000 cfu/mL to 100,000 cfu/mL))"
same,"Grade code, S. aureus, 3 Day",[2]; listed as 0.5% CG,"3 (101 to 1000 colonies (thus 1000 to 10,000 cfu/mL))"
same,"Grade code, S. aureus, 14 Day",[2]; listed as 0.25% CG,2 (52 to 100 colonies counted (thus 520 to 1000 cfu/mL))
same,"Grade code, S. aureus, 14 Day",[2]; listed as 0.5% CG,0 (No growth detected or <1 colony (thus <10 cfu/mL))
same,"Grade code, S. aureus, 30 Day",[2]; listed as 0.25% CG,2 (52 to 100 colonies counted (thus 520 to 1000 cfu/mL))
same,"Grade code, S. aureus, 30 Day",[2]; listed as 0.5% CG,0 (No growth detected or <1 colony (thus <10 cfu/mL))
same,"Grade code, P. vulgaris, 3 Days",[3]; listed as 0.25% CG,"4 (1001 to 10,000 colonies (thus 10,000 cfu/mL to 100,000 cfu/mL))"
same,"Grade code, P. vulgaris, 3 Days",[3]; listed as 0.5% CG,"3 (101 to 1000 colonies (thus 1000 to 10,000 cfu/mL))"
same,"Grade code, P. vulgaris, 13 Days",[3]; 13 days incubation,2 (52 to 100 colonies counted (thus 520 to 1000 cfu/mL))
same,"Grade code, P. vulgaris, 30 Day",[3]; 30 days incubation,2 (52 to 100 colonies counted (thus 520 to 1000 cfu/mL))
same,"Grade code, B. subtilis, 3 Day",[4]; listed as 0.25% CG,"4 (1001 to 10,000 colonies (thus 10,000 cfu/mL to 100,000 cfu/mL))"
same,"Grade code, B. subtilis, 3 Day",[4]; listed as 0.5% CG,"3 (101 to 1000 colonies (thus 1000 to 10,000 cfu/mL))"
same,"Grade code, B. subtilis, 14 Day",[4]; listed as 0.25% CG,"4 (1001 to 10,000 colonies (thus 10,000 cfu/mL to 100,000 cfu/mL))"
same,"Grade code, B. subtilis, 14 Day",[4]; listed as 0.5% CG,1 (1 to 51 colonies counted (thus 10 to 510 cfu/mL))
same,"Grade code, B. subtilis, 30 Days",[4]; listed as 0.25% CG,"4 (1001 to 10,000 colonies (thus 10,000 cfu/mL to 100,000 cfu/mL))"
same,"Grade code, B. subtilis, 30 Days",[4]; listed as 0.5% CG,1 (1 to 51 colonies counted (thus 10 to 510 cfu/mL))
same,"Grade code, P. aeruginosa, 3 Days",[5]; listed as 0.25% CG,2 (52 to 100 colonies counted (thus 520 to 1000 cfu/mL))
same,"Grade code, P. aeruginosa, 3 Days",[5]; listed as 0.5% CG,0 (No growth detected or <1 colony (thus <10 cfu/mL))
same,"Grade code, P. aeruginosa, 13 Days",[5]; listed as 0.25% CG,2 (52 to 100 colonies counted (thus 520 to 1000 cfu/mL))
same,"Grade code, P. aeruginosa, 13 Days",[5]; listed as 0.5% CG,0 (No growth detected or <1 colony (thus <10 cfu/mL))
same,"Grade code, P. aeruginosa, 30 Days",[5]; listed as 0.25% CG,2 (52 to 100 colonies counted (thus 520 to 1000 cfu/mL))
same,"Grade code, P. aeruginosa, 30 Days",[5]; listed as 0.5% CG,0 (No growth detected or <1 colony (thus <10 cfu/mL))
same,"Grade code, B. cepacia, 3 Days",[6]; 3 days incubation,2 (52 to 100 colonies counted (thus 520 to 1000 cfu/mL))
same,"Grade code, B. cepacia, 14 Days",[6]; listed as 0.25% CG,0.5
same,"Grade code, B. cepacia, 14 Days",[6]; listed as 0.5% CG,0 (No growth detected or <1 colony (thus <10 cfu/mL))
same,"Grade code, B. cepacia, 30 Days",[6]; listed as 0.25% CG,0.5
same,"Grade code, B. cepacia, 30 Days",[6]; listed as 0.5% CG,0 (No growth detected or <1 colony (thus <10 cfu/mL))
same,"Grade code, Aeromonas sp, 3 Days",[7]; 3 days incubation,"4 (1001 to 10,000 colonies (thus 10,000 cfu/mL to 100,000 cfu/mL))"
same,"Grade code, Aeromonas sp, 14 Days",[7]; 14 days incubation,"4 (1001 to 10,000 colonies (thus 10,000 cfu/mL to 100,000 cfu/mL))"
same,"Grade code, Aeromonas sp, 30 Days",[7]; 30 days incubation,"4 (1001 to 10,000 colonies (thus 10,000 cfu/mL to 100,000 cfu/mL))"
same,"Grade code, E. coli, 3 Day",[8]; listed as 0.25% CG,"3 (101 to 1000 colonies (thus 1000 to 10,000 cfu/mL))"
same,"Grade code, E. coli, 3 Day",[8]; listed as 0.5% CG,1 (1 to 51 colonies counted (thus 10 to 510 cfu/mL))
same,"Grade code, E. coli, 14 Day",[8]; listed as 0.25% CG,2 (52 to 100 colonies counted (thus 520 to 1000 cfu/mL))
same,"Grade code, E. coli, 14 Day",[8]; listed as 0.5% CG,0 (No growth detected or <1 colony (thus <10 cfu/mL))
same,"Grade code, E. coli, 30 Day",[8]; listed as 0.25% CG,2 (52 to 100 colonies counted (thus 520 to 1000 cfu/mL))
same,"Grade code, E. coli, 30 Day",[8]; listed as 0.5% CG,0 (No growth detected or <1 colony (thus <10 cfu/mL))
